From the supplement of paper PMC13380429

Tests used:
Conditions in all cases: 72 h
[1] = tested on: Calu-3; assay: cell viability relative to DMSO; higher = less toxic
[2] = tested on: U2OS; assay: as above
[3] = tested on: Vero E6; assay: as above
[4] = tested on: HepG2; assay: as above
[5] = tested on: Caco-2; assay: as above
[6] = tested on: Calu-3; assay: relative viability EC50 (midpoint between 100% and the lowest measured viability); higher = less toxic
[7] = tested on: U2OS; assay: as above
[8] = tested on: Vero E6; assay: as above
[9] = tested on: HepG2; assay: as above
[10] = tested on: Caco-2; assay: as above
[11] = tested on: Calu-3; assay: drug sensitivity score (DSS) for viability; higher = more toxic; extreme values may be limits of the assay
[12] = tested on: U2OS; assay: as above
[13] = tested on: Vero E6; assay: as above
[14] = tested on: HepG2; assay: as above
[15] = tested on: Caco-2; assay: as above

O=C(Oc1cc(S(=O)(=O)c2ccccc2)ccc1[N+](=O)[O-])c1ccc(Cl)cc1
cell viability ([1]; 1 nM): 101%
cell viability ([1]; 10 nM): 97.2%
cell viability ([1]; 100 nM): 92.5%
cell viability ([1]; 1000 nM): 94.8%
cell viability ([1]; 10000 nM): 106%
cell viability ([2]; 1 nM): 96.5%
cell viability ([2]; 10 nM): 94.9%
cell viability ([2]; 100 nM): 97.4%
cell viability ([2]; 1000 nM): 94.6%
cell viability ([2]; 10000 nM): 96.9%
cell viability ([3]; 1 nM): 97.5%
cell viability ([3]; 10 nM): 104%
cell viability ([3]; 100 nM): 94.7%
cell viability ([3]; 1000 nM): 101%
cell viability ([3]; 10000 nM): 106%
cell viability ([4]; 1 nM): 100%
cell viability ([4]; 10 nM): 97.2%
cell viability ([4]; 100 nM): 98.4%
cell viability ([4]; 1000 nM): 97.2%
cell viability ([4]; 10000 nM): 102%
cell viability ([5]; 1 nM): 103%
cell viability ([5]; 10 nM): 93.4%
cell viability ([5]; 100 nM): 92.3%
cell viability ([5]; 1000 nM): 87.5%
cell viability ([5]; 10000 nM): 103%
relative viability EC50 [6]: > 10 µM
relative viability EC50 [7]: > 10 µM
relative viability EC50 [8]: > 10 µM
relative viability EC50 [9]: > 10 µM
relative viability EC50 [10]: > 10 µM
drug sensitivity score [11]: 0
drug sensitivity score [12]: 0
drug sensitivity score [13]: 0
drug sensitivity score [14]: 0
drug sensitivity score [15]: 0

CCOc1ccc(Nc2nc(-c3c(C)nc4ccccn34)cs2)cc1 [JK-184]
cell viability ([1]; 1 nM): 101%
cell viability ([1]; 10 nM): 90.5%
cell viability ([1]; 100 nM): 103%
cell viability ([1]; 1000 nM): 57.6%
cell viability ([1]; 10000 nM): 39.4%
cell viability ([2]; 1 nM): 106%
cell viability ([2]; 10 nM): 100%
cell viability ([2]; 100 nM): 79.9%
cell viability ([2]; 1000 nM): 26.9%
cell viability ([2]; 10000 nM): 19.7%
cell viability ([3]; 1 nM): 98.3%
cell viability ([3]; 10 nM): 97.6%
cell viability ([3]; 100 nM): 77.8%
cell viability ([3]; 1000 nM): 31.3%
cell viability ([3]; 10000 nM): 29.5%
cell viability ([4]; 1 nM): 94.9%
cell viability ([4]; 10 nM): 99.5%
cell viability ([4]; 100 nM): 90.6%
cell viability ([4]; 1000 nM): 86.9%
cell viability ([4]; 10000 nM): 40.1%
cell viability ([5]; 1 nM): 102%
cell viability ([5]; 10 nM): 96.9%
cell viability ([5]; 100 nM): 91.3%
cell viability ([5]; 1000 nM): 57.4%
cell viability ([5]; 10000 nM): 33.2%
relative viability EC50 [6]: 0.715 µM
relative viability EC50 [7]: 0.209 µM
relative viability EC50 [8]: 0.152 µM
relative viability EC50 [9]: 1.68 µM
relative viability EC50 [10]: 0.578 µM
drug sensitivity score [11]: 8.3
drug sensitivity score [12]: 16
drug sensitivity score [13]: 15.5
drug sensitivity score [14]: 5.3
drug sensitivity score [15]: 9.2

Oc1nc(O)c2nc(O)[nH]c2n1 [uric-acid]
cell viability ([1]; 1 nM): 96%
cell viability ([1]; 10 nM): 95.3%
cell viability ([1]; 100 nM): 93.5%
cell viability ([1]; 1000 nM): 98.4%
cell viability ([1]; 10000 nM): 101%
cell viability ([2]; 1 nM): 101%
cell viability ([2]; 10 nM): 107%
cell viability ([2]; 100 nM): 99.6%
cell viability ([2]; 1000 nM): 102%
cell viability ([2]; 10000 nM): 98.4%
cell viability ([3]; 1 nM): 98%
cell viability ([3]; 10 nM): 104%
cell viability ([3]; 100 nM): 97.9%
cell viability ([3]; 1000 nM): 102%
cell viability ([3]; 10000 nM): 98.4%
cell viability ([4]; 1 nM): 94.7%
cell viability ([4]; 10 nM): 97.1%
cell viability ([4]; 100 nM): 95.9%
cell viability ([4]; 1000 nM): 92.5%
cell viability ([4]; 10000 nM): 96%
cell viability ([5]; 1 nM): 96.5%
cell viability ([5]; 10 nM): 98%
cell viability ([5]; 100 nM): 92.6%
cell viability ([5]; 1000 nM): 91%
cell viability ([5]; 10000 nM): 95.9%
relative viability EC50 [6]: > 10 µM
relative viability EC50 [7]: > 10 µM
relative viability EC50 [8]: > 10 µM
relative viability EC50 [9]: > 10 µM
relative viability EC50 [10]: > 10 µM
drug sensitivity score [11]: 0
drug sensitivity score [12]: 0
drug sensitivity score [13]: 0
drug sensitivity score [14]: 0
drug sensitivity score [15]: 0

COC(=O)N[C@H](C(=O)N1CC2(CC2)C[C@H]1c1nc(-c2ccc3c(c2)C(F)(F)c2cc(-c4ccc5[nH]c([C@@H]6[C@H]7CC[C@H](C7)N6C(=O)[C@@H](NC(=O)OC)C(C)C)nc5c4)ccc2-3)c[nH]1)C(C)C [ledipasvir]
cell viability ([1]; 1 nM): 95.9%
cell viability ([1]; 10 nM): 106%
cell viability ([1]; 100 nM): 108%
cell viability ([1]; 1000 nM): 110%
cell viability ([1]; 10000 nM): 97.7%
cell viability ([2]; 1 nM): 100%
cell viability ([2]; 10 nM): 99%
cell viability ([2]; 100 nM): 101%
cell viability ([2]; 1000 nM): 94.2%
cell viability ([2]; 10000 nM): 86.6%
cell viability ([3]; 1 nM): 94.3%
cell viability ([3]; 10 nM): 99.7%
cell viability ([3]; 100 nM): 91.9%
cell viability ([3]; 1000 nM): 99.7%
cell viability ([3]; 10000 nM): 108%
cell viability ([4]; 1 nM): 97%
cell viability ([4]; 10 nM): 109%
cell viability ([4]; 100 nM): 96.6%
cell viability ([4]; 1000 nM): 96.7%
cell viability ([4]; 10000 nM): 101%
cell viability ([5]; 1 nM): 93.8%
cell viability ([5]; 10 nM): 93.5%
cell viability ([5]; 100 nM): 98.1%
cell viability ([5]; 1000 nM): 94.5%
cell viability ([5]; 10000 nM): 87.5%
relative viability EC50 [6]: > 10 µM
relative viability EC50 [7]: > 10 µM
relative viability EC50 [8]: > 10 µM
relative viability EC50 [9]: > 10 µM
relative viability EC50 [10]: > 10 µM
drug sensitivity score [11]: 0
drug sensitivity score [12]: 0.5
drug sensitivity score [13]: 0
drug sensitivity score [14]: 0
drug sensitivity score [15]: 0

Nc1nccs1 [aminothiazole]
cell viability ([1]; 1 nM): 102%
cell viability ([1]; 10 nM): 105%
cell viability ([1]; 100 nM): 100%
cell viability ([1]; 1000 nM): 109%
cell viability ([1]; 10000 nM): 91.3%
cell viability ([2]; 1 nM): 102%
cell viability ([2]; 10 nM): 98.6%
cell viability ([2]; 100 nM): 94.2%
cell viability ([2]; 1000 nM): 99.8%
cell viability ([2]; 10000 nM): 97.1%
cell viability ([3]; 1 nM): 105%
cell viability ([3]; 10 nM): 106%
cell viability ([3]; 100 nM): 98.2%
cell viability ([3]; 1000 nM): 93.4%
cell viability ([3]; 10000 nM): 95.4%
cell viability ([4]; 1 nM): 104%
cell viability ([4]; 10 nM): 100%
cell viability ([4]; 100 nM): 94.7%
cell viability ([4]; 1000 nM): 97.2%
cell viability ([4]; 10000 nM): 97.4%
cell viability ([5]; 1 nM): 102%
cell viability ([5]; 10 nM): 94.8%
cell viability ([5]; 100 nM): 97.8%
cell viability ([5]; 1000 nM): 98.9%
cell viability ([5]; 10000 nM): 100%
relative viability EC50 [6]: > 10 µM
relative viability EC50 [7]: > 10 µM
relative viability EC50 [8]: > 10 µM
relative viability EC50 [9]: > 10 µM
relative viability EC50 [10]: > 10 µM
drug sensitivity score [11]: 0
drug sensitivity score [12]: 0
drug sensitivity score [13]: 0
drug sensitivity score [14]: 0
drug sensitivity score [15]: 0

CCOC(=O)c1c[nH]cn1 [C-751]
cell viability ([1]; 1 nM): 100%
cell viability ([1]; 10 nM): 97.2%
cell viability ([1]; 100 nM): 90.3%
cell viability ([1]; 1000 nM): 92.9%
cell viability ([1]; 10000 nM): 104%
cell viability ([2]; 1 nM): 100%
cell viability ([2]; 10 nM): 100%
cell viability ([2]; 100 nM): 94.6%
cell viability ([2]; 1000 nM): 102%
cell viability ([2]; 10000 nM): 93%
cell viability ([3]; 1 nM): 99.5%
cell viability ([3]; 10 nM): 96.7%
cell viability ([3]; 100 nM): 99.6%
cell viability ([3]; 1000 nM): 92.6%
cell viability ([3]; 10000 nM): 100%
cell viability ([4]; 1 nM): 104%
cell viability ([4]; 10 nM): 99.6%
cell viability ([4]; 100 nM): 95.6%
cell viability ([4]; 1000 nM): 93.1%
cell viability ([4]; 10000 nM): 109%
cell viability ([5]; 1 nM): 88.6%
cell viability ([5]; 10 nM): 91.6%
cell viability ([5]; 100 nM): 96.4%
cell viability ([5]; 1000 nM): 98.3%
cell viability ([5]; 10000 nM): 90.4%
relative viability EC50 [6]: > 10 µM
relative viability EC50 [7]: > 10 µM
relative viability EC50 [8]: > 10 µM
relative viability EC50 [9]: > 10 µM
relative viability EC50 [10]: > 10 µM
drug sensitivity score [11]: 0
drug sensitivity score [12]: 0
drug sensitivity score [13]: 0
drug sensitivity score [14]: 0
drug sensitivity score [15]: 0

Cn1c(NCCN(CCO)CCCc2ccc([N+](=O)[O-])cc2)cc(=O)n(C)c1=O [nifekalant]
cell viability ([1]; 1 nM): 96.2%
cell viability ([1]; 10 nM): 103%
cell viability ([1]; 100 nM): 104%
cell viability ([1]; 1000 nM): 110%
cell viability ([1]; 10000 nM): 95.3%
cell viability ([2]; 1 nM): 95.1%
cell viability ([2]; 10 nM): 94.3%
cell viability ([2]; 100 nM): 98.9%
cell viability ([2]; 1000 nM): 97.7%
cell viability ([2]; 10000 nM): 99.4%
cell viability ([3]; 1 nM): 89.8%
cell viability ([3]; 10 nM): 102%
cell viability ([3]; 100 nM): 91.6%
cell viability ([3]; 1000 nM): 102%
cell viability ([3]; 10000 nM): 104%
cell viability ([4]; 1 nM): 109%
cell viability ([4]; 10 nM): 106%
cell viability ([4]; 100 nM): 94%
cell viability ([4]; 1000 nM): 86.1%
cell viability ([4]; 10000 nM): 109%
cell viability ([5]; 1 nM): 107%
cell viability ([5]; 10 nM): 96.7%
cell viability ([5]; 100 nM): 86.9%
cell viability ([5]; 1000 nM): 90.8%
cell viability ([5]; 10000 nM): 92.5%
relative viability EC50 [6]: > 10 µM
relative viability EC50 [7]: > 10 µM
relative viability EC50 [8]: > 10 µM
relative viability EC50 [9]: > 10 µM
relative viability EC50 [10]: > 10 µM
drug sensitivity score [11]: 0
drug sensitivity score [12]: 0
drug sensitivity score [13]: 0
drug sensitivity score [14]: 0
drug sensitivity score [15]: 1.8
